The record followed here is the RepoRT retention time repository.

Each structure is given as a SMILES string.

The nature of the data set: HILIC, Waters ACQUITY UPLC BEH Amide, 100 × 2.1 mm, 1.7 µm; A: water + 0.125% formic acid + 10 mM ammonium formate; B: 5% water + 95% acetonitrile + 0.125% formic acid + 10 mM ammonium formate; gradient (min/%B) 0/100 2/100 7.7/70 9.5/40 10.25/30 12.75/100 17/100. As to conditions: stereoisomer not certain.
As for `CNC(CC(C)C)C(=O)O` (centres undefined) [N-Methylleucine], the LC retention time stood at 6.45 min.
The value for `CN1CC(=O)NC1=N` [Creatinine] was 4.93 min.
With `CCC(C)C(=O)OC1CC(O)C=C2C=CC(C)C(CCC(O)CC(O)CC(=O)O)C21` (centres undefined) [Pravastatin], the LC retention time amounted to 1.8 min.
For `COC(=O)Nc1nc2ccc(C(=O)c3ccc(F)cc3)cc2[nH]1` [Flubendazole] the value was 1.16 min.
For `CC(C)C1=CC2=CCC3C(C)(C(=O)O)CCCC3(C)C2CC1` (centres undefined) [Abietic acid] the value was 1.11 min; for `COc1ccccc1N1CCN(CCCNc2cc(=O)n(C)c(=O)n2C)CC1` [Urapidil], 4.58 min; for `CC(C)CC(N)C(=O)N1CCCC1C(=O)O` (centres undefined) [Leu-Pro], 7.32 min.
For `N#CCc1c[nH]c2ccccc12` [3-Indoleacetonitrile] the value was 8.02 min; for `NC(CSCC(=O)O)C(=O)O` (centres undefined) [Carbocysteine], 9.04 min.
In the case of `CNC(C(=O)O)C(C)O` (centres undefined) [N-Methylthreonine], the LC retention time came out at 7.68 min.
For `CC12CCC(=O)C=C1CCC1C2C(O)CC2(C)C1CCC2(O)C(=O)CO` (centres undefined) [Hydrocortisone] the value was 2.56 min; for `CC(=O)CCCCn1cnc2c1c(=O)n(C)c(=O)n2C` [Lomifylline], 1.09 min.
For `Cn1cncc1CC(NC(=O)CCN)C(=O)O` (centres undefined) [Anserine] the value was 9.49 min; for `CC(C)CC(NC(=O)CCC(N)C(=O)O)C(=O)O` (centres undefined) [gamma-Glutamylleucine], 8.1 min; for `O=c1cc(-c2ccc(O)cc2)oc2c(C3OC(CO)C(O)C(O)C3O)c(O)cc(O)c12` (centres undefined) [Vitexin], 5.33 min.
The value for `O=C(O)C(=O)Cc1c[nH]c2ccccc12` [Indole-3-pyruvic acid] was 5.11 min; that for `Fc1ccc(C2CCNCC2COc2ccc3c(c2)OCO3)cc1` (centres undefined) [Paroxetine] was 3.08 min; that for `Nc1[nH]c(=O)ncc1F` [5-Flurocytosine] was 4.62 min.
With `CC(O)C(C)O` (centres undefined) [2,3-Butanediol], the LC retention time turned out to be 3.34 min.
The value for `CC(N)C(=O)O` (centres undefined) [Alanine] was 8.05 min.
The value for `COc1cc2c(cc1OC)C1C(C)c3ccc(OC)c(OC)c3CN1CC2` (centres undefined) [Corydaline] was 1.52 min.
The value for `Cc1ccsc1C(=CCCN1CCCC(C(=O)O)C1)c1sccc1C` (centres undefined) [Tiagabine] was 3.94 min; that for `NC(=NCc1ccc(Cl)cc1)SCCCc1cnc[nH]1` [Clobenpropit] was 6.13 min; that for `NC(CCC(=O)O)C(=O)O` (centres undefined) [Glutamic acid] was 8.85 min.
Turning to `CC(C)C12OC1C1OC13C1(C)CCC4=C(COC4=O)C1CC1OC13C2O` (centres undefined) [Triptolide], the LC retention time amounted to 1.02 min.
The value for `O=C(CCc1ccc(O)cc1)c1c(O)cc(O)cc1O` [Phloretin] was 1.5 min.
For the molecule `COc1ccc2[nH]cc(CCNC(C)=O)c2c1` [Melatonin], the LC retention time stood at 1.24 min.
For `CCCCCCCC=O` [Octanal] the value was 6.98 min; for `COc1cc(-c2oc3cc(O)cc(O)c3c(=O)c2OC2OC(COC3OC(C)C(O)C(O)C3O)C(O)C(O)C2O)ccc1O` (centres undefined) [Isorhamnetin-3-O-rutinoside], 6.02 min.
The value for `NC1CCN(c2cccc(Cl)n2)CC1` was 4.85 min.
As for `NCC1CCC(C(=O)O)CC1` (centres undefined) [4-Aminomethylcyclohexanecarboxylic acid], the LC retention time worked out at 6.6 min.
The value for `NC(N)=NCC(=O)O` [Guanidinoacetic acid] was 8.16 min; that for `Nc1ccccc1C(=O)CC(N)C(=O)O` (centres undefined) [Kynurenine] was 6.98 min; that for `CN1CCC(c2ccc(F)cc2)C(COc2ccc3c(c2)OCO3)C1` (centres undefined) [N-Methylparoxetine] was 2.2 min.
For `CC(O)C(C)C(=O)O` (centres undefined) [Methyl-3-hydroxybutyric acid] the value was 6.22 min; for `CS(=O)CCCCN=C=S` (centres undefined) [Sulforaphane], 1.14 min; for `NCCc1ccc(O)cc1` [Tyramine], 5.58 min.
As for `CC(=O)N[C@@H](CCCCN)C(=O)O` [N.alpha.-Acetyl-L-lysine], the LC retention time worked out at 8.15 min.
The value for `CC(C)=CC(=O)NCC(=O)O` [3-Methylcrotonylglycine] was 2.95 min; that for `NCCc1ccccn1` [2-(2-Aminoethyl)pyridine] was 5.52 min.
The value for `C[n+]1cccc(C(N)=O)c1` [1-Methylnicotinamide] was 6.26 min; that for `CC(=O)NC(C)C(=O)O` (centres undefined) [N-Acetylalanine] was 4.83 min; that for `O=c1[nH]c(=S)ccn1C1OC(CO)C(O)C1O` (centres undefined) [4-Thiouridine] was 2.27 min.
For `O=C(O)CCCCCCC(O)CC(=O)O` (centres undefined) [3-Hydroxysebacic acid] the value was 2.55 min; for `CC(C)Oc1ccc2c(=O)c(-c3ccccc3)coc2c1` [Ipriflavone], 0.94 min; for `CCCCCCCCCCCCCCCCCC(=O)OC(CC(=O)[O-])C[N+](C)(C)C` [Stearoyl-L-carnitine], 2.96 min.
Consider `COc1cc2nc(N3CCN(C(=O)C4CCCO4)CC3)nc(N)c2cc1OC` (centres undefined) [Terazosin], for which the LC retention time is 4.66 min.
As for `O=C(O)CP(=O)(O)O` [Phosphonoacetic acid], the LC retention time was 9.73 min.
For `COc1cn(C2OC(CO)C(O)C2O)c(=O)[nH]c1=O` (centres undefined) [5-Methoxyuridine] the value was 4.72 min; for `NC(=O)OCC(COC(N)=O)c1ccccc1` [Felbamate], 1.2 min.
For `NC(COP(=O)(O)O)C(=O)O` (centres undefined) [O-Phosphoserine] the value was 9.85 min; for `O=C(C=CC=Cc1ccc2c(c1)OCO2)N1CCCCC1` [Piperine], 1.1 min; for `CC1OC(OC2C(Oc3cc(O)c4c(c3)OC(c3ccc(O)cc3)CC4=O)OC(CO)C(O)C2O)C(O)C(O)C1O` (centres undefined) [Naringin], 5.61 min.
The value for `CC(=O)NC(Cc1c[nH]c2ccccc12)C(=O)O` (centres undefined) [N-Acetyltryptophan] was 2.81 min; that for `CN1C(=O)CC(=O)N(c2ccccc2)c2cc(Cl)ccc21` [Clobazam] was 1.1 min.
Consider `CNc1ccccc1C(=O)O` [N-Methylanthranilic acid], for which the LC retention time came to 1.22 min.
As to `O=C(O)Cc1c[nH]c2ccccc12` [3-Indoleacetic acid], the LC retention time stood at 1.33 min.
For `NC(C(=O)NC1C(=O)N2C(C(=O)O)=C(Cl)CSC12)c1ccccc1` (centres undefined) [Cefaclor] the value was 5.61 min; for `COc1cc2c(cc1OC)C(=O)C(CC1CCN(Cc3ccccc3)CC1)C2` (centres undefined) [Donepezil], 2.44 min.
For `CC1OC(Oc2c(-c3ccc(O)c(O)c3)oc3cc(O)cc(O)c3c2=O)C(O)C(O)C1O` (centres undefined) [Quercetin-3-ramnoside] the value was 4.7 min; for `NCCCCC(N)C(=O)O` (centres undefined) [Lysine], 9.54 min.
For `NC(N)=NCCCC(N)C(=O)N1CCCC1C(=O)O` (centres undefined) [Arg-Pro] the value was 9.51 min; for `O=C1CN=C(c2ccccc2)c2cc(Cl)ccc2N1CC1CC1` [Prazepam], 1.07 min.
Regarding `OCC(O)C(O)C(OC1OC(CO)C(O)C(O)C1O)C(O)CO` (centres undefined) [Lactitol], the LC retention time came out at 8.99 min.
For `O=Cc1c[nH]c2ccccc12` [Indole-3-carboxaldehyde] the value was 1.16 min; for `COc1cc(C(=O)O)cc(OC)c1O` [Syringic acid], 1.35 min.
For `Cc1cn(C2CC(O)C(CO)O2)c(=O)[nH]c1=O` (centres undefined) [Thymidine] the value was 2.57 min; for `CC(Cc1ccccc1)N(C)Cc1ccccc1` (centres undefined) [Benzphetamine], 2.03 min; for `N#CC(O)c1ccc(O)cc1` (centres undefined) [4-Hydroxymandelonitrile], 2.63 min.
For `CCc1ccc(CCOc2ccc(CC3SC(=O)NC3=O)cc2)nc1` (centres undefined) [Pioglitazone], the LC retention time was 1.11 min.
For `CNc1nc2c(ncn2C2OC(CO)C(O)C2O)c(=O)[nH]1` (centres undefined) [N2-Methylguanosine], the LC retention time came to 6.4 min.
Turning to `CNC(=O)Oc1ccc2c(c1)C1(C)CCN(C)C1N2C` (centres undefined) [Physostigmine], the LC retention time came out at 3.17 min.
The value for `Cn1c(=N)ccn(C2OC(CO)C(O)C2O)c1=O` (centres undefined) [3-Methylcytidine] was 6.99 min.
Take `O=C1OC(C(O)CO)C(O)=C1O` (centres undefined) [Ascorbic acid]: the LC retention time was determined as 1.44 min.
The value for `O=C1CCC(=O)CC1` [1,4-Cyclohexanedione] was 1.15 min; that for `COC1C(O)C(CO)OC1n1ccc(=O)[nH]c1=O` (centres undefined) [2'-O-Methyluridine] was 2.24 min; that for `CCC(C)C(N)C(=O)O` (centres undefined) [Isoleucine] was 7.18 min.
As to `Cc1ccccc1-n1c(C)nc2ccccc2c1=O` [Methaqualone], the LC retention time turned out to be 1.1 min.
For `C=CCC1(C(C)C#CCC)C(=O)NC(=O)N(C)C1=O` (centres undefined) [Methohexital] the value was 6.9 min; for `C[N+](C)(C)C(Cc1c[nH]c(=S)[nH]1)C(=O)[O-]` (centres undefined) [Ergothioneine], 7.74 min; for `CN(C)CCOC(c1ccccc1)c1ccccc1` [Diphenhydramine], 2.15 min.
The value for `O=C1c2c(O)cc(O)cc2OC(c2ccc(O)c(O)c2)C1O` (centres undefined) [Taxifolin] was 1.78 min; that for `CC(=O)N[C@@H](CCC(N)=O)C(=O)O` [N-Acetyl-L-glutamine] was 8.18 min; that for `CCN(CC)CCOC(=O)C(O)(c1ccccc1)c1ccccc1` [Benactyzine] was 2.16 min.
